From ChEMBL document CHEMBL1201862, “PubChem BioAssay data set” (2004)
Counter-ions that a name gives are not always drawn. One block for each compound: values may come before it. Activity calls are given as the source filed them.

Columns and labels:
[1] = target: Eukaryotic translation initiation factor 4H (Homo sapiens, UniProt Q15056); assay: inhibitors of translation initiation factor eIF4H – SAR follow-up (AID 435011); assay type: functional
[2] = target: Polyadenylate-binding protein 1 (Homo sapiens, UniProt P11940); assay: PABP inhibition in translation initiation, SAR follow-up (AID 435018); assay type: functional
Cytochrome P450 2C9 = Cytochrome P450 2C9 (Homo sapiens, UniProt P11712); details: Potency
[3] = target: T1, Voltage-dependent T-type calcium channel subunit alpha-1H (Homo sapiens, UniProt O95180); assay type: functional
[4] = target: T1, Voltage-dependent T-type calcium channel subunit alpha-1H; assay: Inhibitors of T-Type Calcium Channels. [Related pubchem assays (depositor defined):AID449739, AID463087, AID489005, AID493041, AID504579, AID504584, AID504619, AID504628]; assay type: functional
Hexokinase = Hexokinase (Trypanosoma brucei, UniProt Q38C41); assay: Confirmation assay for inhibitors of Trypanosoma brucei hexokinase 1-Analogue-first series. [Related pubchem assays (depositor defined):AID1430, AID1632, AID2516, AID2560, AID2579, AID2600, AID449725, AID492951]; assay type: functional
Aspartyl aminopeptidase = Aspartyl aminopeptidase (Plasmodium falciparum 3D7, UniProt Q8I2J3)
Procathepsin L = Procathepsin L (Homo sapiens, UniProt P07711)
Cytochrome P450 3A4 [5] = target: T2, Cytochrome P450 3A4 (Homo sapiens, UniProt P08684); details: read-out: Potency;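 also: confirmatory qHTS run detecting inhibitors and substrates of CYP3A4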
Cytochrome P450 3A4 [6] = target: T2, Cytochrome P450 3A4; details: Potency
[7] = target: C-C chemokine receptor type 6 (Homo sapiens, UniProt P51684); assay: antagonism of CCR6 beta-arrestin recruitment – cell-based, luminescent beta-arrestin readout, dose response (AID 504728); assay type: functional
[8] = target: Heat shock protein HSP 90-alpha (Homo sapiens, UniProt P07900); assay type: functional, organism-based
Hexokinase HKDC1 = target: T3, Hexokinase HKDC1 (Homo sapiens, UniProt Q2TB90); assay: inhibition of HKDC1 glucose phosphorylation – biochemical, W721R variant, dose response (AID 504729); assay type: functional
T3 sequence (Q2TB90 whole entry): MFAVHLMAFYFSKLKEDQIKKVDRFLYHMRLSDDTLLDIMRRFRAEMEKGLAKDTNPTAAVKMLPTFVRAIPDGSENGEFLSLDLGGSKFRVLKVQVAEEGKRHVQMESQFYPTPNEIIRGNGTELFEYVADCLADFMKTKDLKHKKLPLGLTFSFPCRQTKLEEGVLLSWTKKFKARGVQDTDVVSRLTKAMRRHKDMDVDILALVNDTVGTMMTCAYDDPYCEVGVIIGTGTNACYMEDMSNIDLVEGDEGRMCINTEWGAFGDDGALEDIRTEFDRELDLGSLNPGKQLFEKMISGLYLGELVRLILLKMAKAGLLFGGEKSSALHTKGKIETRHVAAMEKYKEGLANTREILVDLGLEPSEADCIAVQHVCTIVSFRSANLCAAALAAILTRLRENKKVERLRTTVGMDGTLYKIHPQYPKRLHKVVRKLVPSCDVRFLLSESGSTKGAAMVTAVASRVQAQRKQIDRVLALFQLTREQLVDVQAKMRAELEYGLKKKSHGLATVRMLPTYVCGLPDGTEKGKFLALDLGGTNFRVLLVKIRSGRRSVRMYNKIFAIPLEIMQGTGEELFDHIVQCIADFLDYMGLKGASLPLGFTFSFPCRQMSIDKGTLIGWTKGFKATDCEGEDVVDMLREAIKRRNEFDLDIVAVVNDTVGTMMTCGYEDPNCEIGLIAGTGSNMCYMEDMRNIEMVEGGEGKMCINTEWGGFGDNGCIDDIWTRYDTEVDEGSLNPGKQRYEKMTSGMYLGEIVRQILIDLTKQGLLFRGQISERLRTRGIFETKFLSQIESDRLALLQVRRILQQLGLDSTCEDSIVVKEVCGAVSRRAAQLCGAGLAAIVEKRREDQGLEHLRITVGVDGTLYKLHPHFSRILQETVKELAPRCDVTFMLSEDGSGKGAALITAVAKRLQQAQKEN

Beta-galactosidase = Beta-galactosidase (Escherichia coli, UniProt Q8VNN2); assay: detection-enzyme interference by beta-gal modulators – biochemical, E. coli enzyme, set 3, artefact control for CCR6 antagonist project, dose response (AID 504712); assay type: functional
[9] = target: T4, Ubiquitin-conjugating enzyme E2 N (Homo sapiens, UniProt P61088); assay type: functional
T4 sequence (P61088 whole entry): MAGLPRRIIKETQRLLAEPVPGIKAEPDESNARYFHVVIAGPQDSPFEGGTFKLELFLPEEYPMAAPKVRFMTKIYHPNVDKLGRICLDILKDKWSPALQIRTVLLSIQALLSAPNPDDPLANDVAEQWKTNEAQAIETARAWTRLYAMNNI

[10] = target: T4, Ubiquitin-conjugating enzyme E2 N; assay type: functional; remark: listed apart in the source
Bcl-2-related protein A1 = Bcl-2-related protein A1 (Mus musculus, UniProt Q07440); assay type: functional;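 also: confirmatory dose–response counterscreen on Bfl-1, used to check hits from a UBC13 polyubiquitin inhibitor campaign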
Cysteine protease ATG4B = Cysteine protease ATG4B (Homo sapiens, UniProt Q9Y4P1); assay type: functional;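 also: Fluorescence-based dose-response confirmation assay measuring inhibition of ATG4B activity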
Large T antigen = Large T antigen (Simian virus 40, UniProt P03070); assay type: functional, Betapolyomavirus macacae;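 also: Confirmatory-stage PubChem screen for compounds that inhibit SV40 T antigen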
Phospholipase A2 = Phospholipase A2 (Homo sapiens, UniProt P04054); assay type: functional;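 also: confirmatory dose-response counterscreen on phospholipase A2, testing hits that came from an ultra-high-throughput screen for ATG4B inhibitors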

T1 sequence (O95180 whole entry): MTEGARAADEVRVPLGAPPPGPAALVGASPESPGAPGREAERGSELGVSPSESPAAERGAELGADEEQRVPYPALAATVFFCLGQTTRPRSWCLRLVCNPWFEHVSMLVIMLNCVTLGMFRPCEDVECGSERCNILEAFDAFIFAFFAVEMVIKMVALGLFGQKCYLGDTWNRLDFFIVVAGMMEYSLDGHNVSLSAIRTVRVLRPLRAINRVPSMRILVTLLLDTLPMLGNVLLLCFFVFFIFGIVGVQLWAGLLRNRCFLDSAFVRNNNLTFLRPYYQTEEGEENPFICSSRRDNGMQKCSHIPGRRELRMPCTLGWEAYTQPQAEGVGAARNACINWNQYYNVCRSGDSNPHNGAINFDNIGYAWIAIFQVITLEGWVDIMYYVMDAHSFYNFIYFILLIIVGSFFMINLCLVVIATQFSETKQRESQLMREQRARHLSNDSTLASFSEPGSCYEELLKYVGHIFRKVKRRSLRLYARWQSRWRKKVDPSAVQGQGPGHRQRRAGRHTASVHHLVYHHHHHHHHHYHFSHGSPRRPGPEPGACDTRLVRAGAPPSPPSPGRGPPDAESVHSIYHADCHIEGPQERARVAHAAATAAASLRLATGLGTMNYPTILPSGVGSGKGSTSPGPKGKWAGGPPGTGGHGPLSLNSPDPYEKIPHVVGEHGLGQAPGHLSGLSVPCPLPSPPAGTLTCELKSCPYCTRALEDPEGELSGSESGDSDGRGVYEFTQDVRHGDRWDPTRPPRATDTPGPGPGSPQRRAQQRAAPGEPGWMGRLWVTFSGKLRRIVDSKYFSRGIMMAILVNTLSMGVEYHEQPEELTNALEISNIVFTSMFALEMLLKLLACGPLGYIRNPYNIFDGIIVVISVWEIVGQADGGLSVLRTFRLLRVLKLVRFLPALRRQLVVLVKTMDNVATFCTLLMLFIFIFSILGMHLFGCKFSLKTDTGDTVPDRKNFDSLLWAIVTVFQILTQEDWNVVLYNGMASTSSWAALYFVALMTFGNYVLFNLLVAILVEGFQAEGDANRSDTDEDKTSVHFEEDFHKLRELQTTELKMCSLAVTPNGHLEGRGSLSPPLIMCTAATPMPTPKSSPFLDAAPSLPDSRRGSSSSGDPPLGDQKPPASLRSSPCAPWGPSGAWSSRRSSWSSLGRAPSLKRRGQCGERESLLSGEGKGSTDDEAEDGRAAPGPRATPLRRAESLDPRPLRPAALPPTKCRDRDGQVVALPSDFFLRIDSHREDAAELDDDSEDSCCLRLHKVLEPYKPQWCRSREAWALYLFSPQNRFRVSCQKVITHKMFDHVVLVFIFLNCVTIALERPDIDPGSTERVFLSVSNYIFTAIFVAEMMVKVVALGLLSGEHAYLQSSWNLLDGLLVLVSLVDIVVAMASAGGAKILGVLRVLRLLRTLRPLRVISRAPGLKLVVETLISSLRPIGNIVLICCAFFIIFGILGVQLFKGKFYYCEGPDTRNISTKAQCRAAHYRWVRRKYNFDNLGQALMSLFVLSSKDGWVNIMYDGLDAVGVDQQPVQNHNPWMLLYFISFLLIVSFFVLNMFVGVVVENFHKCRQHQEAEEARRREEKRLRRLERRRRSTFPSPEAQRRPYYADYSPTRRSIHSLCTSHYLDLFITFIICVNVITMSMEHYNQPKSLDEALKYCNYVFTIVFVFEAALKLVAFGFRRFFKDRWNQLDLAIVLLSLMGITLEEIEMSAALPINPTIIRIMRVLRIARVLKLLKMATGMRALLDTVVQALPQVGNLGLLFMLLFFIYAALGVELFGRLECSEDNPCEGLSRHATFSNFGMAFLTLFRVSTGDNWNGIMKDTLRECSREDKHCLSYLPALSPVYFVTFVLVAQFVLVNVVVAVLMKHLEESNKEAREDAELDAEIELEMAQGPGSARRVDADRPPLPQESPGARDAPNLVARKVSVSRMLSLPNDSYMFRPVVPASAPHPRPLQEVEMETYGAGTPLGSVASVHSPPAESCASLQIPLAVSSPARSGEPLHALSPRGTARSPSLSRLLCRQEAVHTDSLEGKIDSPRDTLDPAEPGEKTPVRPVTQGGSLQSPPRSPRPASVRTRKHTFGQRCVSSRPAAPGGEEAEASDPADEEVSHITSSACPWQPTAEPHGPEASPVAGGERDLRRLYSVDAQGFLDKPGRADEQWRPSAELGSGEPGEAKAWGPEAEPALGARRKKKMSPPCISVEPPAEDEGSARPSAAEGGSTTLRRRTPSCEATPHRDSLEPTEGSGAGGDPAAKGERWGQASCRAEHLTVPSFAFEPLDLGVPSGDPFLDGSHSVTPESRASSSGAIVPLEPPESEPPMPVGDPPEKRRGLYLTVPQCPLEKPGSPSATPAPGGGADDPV
T2 sequence (P08684 whole entry): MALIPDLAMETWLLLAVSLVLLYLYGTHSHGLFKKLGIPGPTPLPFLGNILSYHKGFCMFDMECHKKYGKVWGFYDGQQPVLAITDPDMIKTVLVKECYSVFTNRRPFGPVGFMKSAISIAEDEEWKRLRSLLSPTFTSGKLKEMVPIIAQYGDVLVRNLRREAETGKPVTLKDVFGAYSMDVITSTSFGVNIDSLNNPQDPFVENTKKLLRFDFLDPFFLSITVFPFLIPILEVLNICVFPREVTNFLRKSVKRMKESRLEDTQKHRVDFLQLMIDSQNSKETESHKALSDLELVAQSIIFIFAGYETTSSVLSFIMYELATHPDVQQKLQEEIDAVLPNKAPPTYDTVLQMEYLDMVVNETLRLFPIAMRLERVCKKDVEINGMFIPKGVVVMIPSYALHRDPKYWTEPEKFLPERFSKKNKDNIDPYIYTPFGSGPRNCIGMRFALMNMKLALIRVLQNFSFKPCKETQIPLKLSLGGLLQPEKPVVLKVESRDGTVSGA
Cytochrome P450 2C9, sequence (P11712 whole entry): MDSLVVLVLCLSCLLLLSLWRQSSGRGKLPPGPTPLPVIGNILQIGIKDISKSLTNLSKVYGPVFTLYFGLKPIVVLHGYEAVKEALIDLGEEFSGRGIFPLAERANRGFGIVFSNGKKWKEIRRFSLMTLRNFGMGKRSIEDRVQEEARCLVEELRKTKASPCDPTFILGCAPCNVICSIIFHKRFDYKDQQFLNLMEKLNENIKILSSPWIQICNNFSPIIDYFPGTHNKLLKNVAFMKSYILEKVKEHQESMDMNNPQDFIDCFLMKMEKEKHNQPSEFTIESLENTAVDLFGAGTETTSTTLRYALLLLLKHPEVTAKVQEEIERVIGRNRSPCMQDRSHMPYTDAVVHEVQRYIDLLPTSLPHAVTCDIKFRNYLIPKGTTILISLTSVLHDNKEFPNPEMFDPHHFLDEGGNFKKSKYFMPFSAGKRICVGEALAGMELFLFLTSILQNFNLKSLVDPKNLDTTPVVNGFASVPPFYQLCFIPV
Polyadenylate-binding protein 1, sequence (P11940 whole entry): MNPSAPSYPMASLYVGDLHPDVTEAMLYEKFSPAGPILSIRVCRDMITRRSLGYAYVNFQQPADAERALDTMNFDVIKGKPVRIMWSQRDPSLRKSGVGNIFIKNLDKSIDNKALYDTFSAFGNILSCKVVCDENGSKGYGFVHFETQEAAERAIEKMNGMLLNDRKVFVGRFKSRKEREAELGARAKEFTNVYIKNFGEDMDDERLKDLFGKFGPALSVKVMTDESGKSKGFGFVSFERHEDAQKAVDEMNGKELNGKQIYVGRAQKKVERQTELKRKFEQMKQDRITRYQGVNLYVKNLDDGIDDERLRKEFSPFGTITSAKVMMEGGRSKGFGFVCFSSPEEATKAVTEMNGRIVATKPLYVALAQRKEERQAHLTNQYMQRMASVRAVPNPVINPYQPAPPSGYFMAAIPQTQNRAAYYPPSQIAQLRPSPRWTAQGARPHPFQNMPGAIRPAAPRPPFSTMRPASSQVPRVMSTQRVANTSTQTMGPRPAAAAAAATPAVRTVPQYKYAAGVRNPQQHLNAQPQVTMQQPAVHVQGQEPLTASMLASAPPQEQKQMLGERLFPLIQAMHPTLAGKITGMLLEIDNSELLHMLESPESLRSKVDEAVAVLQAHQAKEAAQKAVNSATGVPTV
Aspartyl aminopeptidase, sequence (Q8I2J3 whole entry): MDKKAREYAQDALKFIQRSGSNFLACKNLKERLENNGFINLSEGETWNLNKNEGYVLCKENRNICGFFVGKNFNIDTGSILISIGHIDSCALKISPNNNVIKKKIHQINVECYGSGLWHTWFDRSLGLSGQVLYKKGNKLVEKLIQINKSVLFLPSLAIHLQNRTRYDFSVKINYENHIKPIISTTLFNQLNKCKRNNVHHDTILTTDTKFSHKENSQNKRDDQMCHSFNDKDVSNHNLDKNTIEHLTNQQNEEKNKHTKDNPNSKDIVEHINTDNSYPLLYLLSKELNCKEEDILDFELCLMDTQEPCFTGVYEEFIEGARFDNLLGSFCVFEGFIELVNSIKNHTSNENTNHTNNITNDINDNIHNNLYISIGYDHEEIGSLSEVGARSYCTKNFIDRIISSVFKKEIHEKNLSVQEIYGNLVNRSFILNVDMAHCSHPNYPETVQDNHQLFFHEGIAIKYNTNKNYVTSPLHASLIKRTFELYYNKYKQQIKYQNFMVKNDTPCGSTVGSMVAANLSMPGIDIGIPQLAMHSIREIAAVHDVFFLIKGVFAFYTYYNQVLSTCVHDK
Hexokinase, sequence (Q38C41 whole entry): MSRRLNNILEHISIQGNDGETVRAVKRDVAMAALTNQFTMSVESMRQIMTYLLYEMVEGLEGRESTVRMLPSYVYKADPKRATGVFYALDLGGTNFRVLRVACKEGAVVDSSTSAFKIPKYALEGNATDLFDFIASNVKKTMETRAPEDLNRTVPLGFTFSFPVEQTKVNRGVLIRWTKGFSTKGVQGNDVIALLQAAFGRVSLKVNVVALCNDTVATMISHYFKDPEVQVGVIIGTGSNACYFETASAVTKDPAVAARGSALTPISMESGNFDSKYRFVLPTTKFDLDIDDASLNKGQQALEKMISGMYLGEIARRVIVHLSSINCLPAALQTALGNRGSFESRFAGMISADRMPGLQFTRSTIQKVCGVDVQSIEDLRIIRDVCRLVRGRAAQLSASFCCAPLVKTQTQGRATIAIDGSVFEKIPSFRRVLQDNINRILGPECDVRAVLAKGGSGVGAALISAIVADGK

IC50 [1]: > 100 µM (inactive)
IC50 [2]: > 100 µM (inactive)
Structure (SMILES): COc1cc(C=NNC(=O)c2ccc(O)cc2)ccc1OCC(=O)Nc1cccc([N+](=O)[O-])c1

AC50 (Cytochrome P450 2C9): 25.1 µM (inconclusive)
Structure (SMILES): COc1cccc(-c2cc(=O)c3cc(O)ccc3o2)c1

EC50 [3]: 2.64 µM (active)
EC50 [4]: 5.25 µM (active)
Structure (SMILES): Cc1cccc(NC(=O)C23CCC(C)(C2Br)C3(C)C)c1 (stereo not given)

Structure (SMILES): O=C(CCn1sc2ccccc2c1=O)Nc1ccccc1
IC50 (Hexokinase): 19.8 µM (active)

IC50 (Aspartyl aminopeptidase): 1.49 µM (active)
IC50 (Procathepsin L): > 59.6 µM (not active)
Structure (SMILES): Cc1cc(O)nc(SCC(=O)c2ccc(O)c(O)c2)n1

Structure (SMILES): O=c1cccc2n1C[C@H]1CNC[C@H]2C1
AC50 (Cytochrome P450 3A4 [5]): 31.6 µM (inconclusive)
AC50 (Cytochrome P450 3A4 [6]): 31.6 µM (inconclusive)

IC50 [7]: 25.9 µM (inactive)
AC50 [8]: 4.05 µM (active)
IC50 (Hexokinase HKDC1): 14.2 µM (active)
IC50 (Beta-galactosidase): > 66.6 µM (inactive)
IC50 [9]: 1.73 µM (active)
IC50 [10]: 1.98 µM (active)
IC50 (Bcl-2-related protein A1): 5.95 µM (active)
IC50 (Cysteine protease ATG4B): 3.89 µM (active)
IC50 (Large T antigen): 29.1 µM (active)
IC50 (Phospholipase A2): 9.51 µM (active)
Structure (SMILES): CCCCC(CC)CNC(=N)NC(=N)NCCCCCCNC(=N)NC(=N)NCC(CC)CCCC (stereo not given) [ALEXIDINE HYDROCHLORIDE]
